Test results: US6958345B2, “2-hydroxymethylcyclopropylidene methylpurines and -pyrimidines as antiviral agents” (The Regents of the University of Michigan, priority 1997, dated 2005)
pIC50: −log10 of the molar value.

System: HHV-6
Assay: HHV-6 ELISA in HSB-2 cells
Assay type: cell-based, human herpes virus 6 (HHV 6)
Settings: Homo sapiens, HSB2
Method: (c) HHV-6. In this case, enzyme-linked immunosorbent assay (ELISA) was performed in covalent amine plates (Costar, Cambridge, Mass.). The plates were activated by the addition of a homobifunctional crosslinking agent, bis(sulfosuccinimidyl) suberate, which was dissolved at 1 mg/mL in 30 mL of phosphate buffered saline (PBS: 137 mM NaCl, 2.7 mM KCl, 4.3 mM Na2HPO4, 1.4 mM KH2PO4, pH 7.4) and 300 μL of the crosslinker was added to each well in the covalent plate. The crosslinker reacted with the amine function on the plate for 30 min at room temperature. The byproduct, sodium N-hydroxysuccinimide sulfite, was removed by decanting and washing the plate twice with PBS. Samples consisting of 150 μl of mixed suspended HSB2 cells from the original drug-treated plate were solubilized in an equal volume of 10% Triton X-100 in coating buffer (15 mM Na2CO3, […] NaHCO3, pH 9.6). The plate was covered and then incubated for 1 h at 37° C. in a 5% CO2 atmosphere. These binding conditions facilitated covalent attachment of the antigen to the free end of the crosslinker.
After covalent binding, the antigen solution was decanted and the plate was washed six times in HEPES buffered saline (Shipman, C., Jr., Proc. Soc. Exp. Biol. 130:305-310 (1969)) with 0.05% Tween 20 (HBS-T ), soaking for three min for each wash. […] Absorbance in each well was determined at 450/570 nm.

`O=C(O)P(=O)(O)O` [Foscarnet, reference compound] showed a pIC50 of 4.82.
